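Exposure lasted 48 hours, with cells grown in 96-well plates and compounds tested at five concentrations. GI50 marks 50% less growth. Definition used: TGI = concentration required for complete inhibition of growth.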 Some results are limits rather than exact numbers.

In PubChem BioAssay (NCI) one finds TGI and GI50 data, which are given here for eleven compounds.

Some test systems named below: MDA-MB-231 breast; 786-0 renal; UO-31 renal; NCI-H226 lung; SF-539 CNS; HS 578T breast; NCI/ADR-RES ovarian; MCF7 breast; HOP-62 NSCLC; A549 NSCLC; PC-3 prostate; RXF 393 renal.
Common to all, as to assay: NCI tumour cell line growth inhibition, 48 h

Turning to `CCOC(=O)C1=C(C)N(Cc2ccc(Cl)cc2Cl)C2(O)C(OC)CC(=O)C3C(=O)N(c4ccccc4)C(=O)C132` (configuration not stated), the TGI in the experiment on MDA-MB-231 breast is 7.16 µM; with 786-0 renal, 4.11 µM; with UO-31 renal, 18.7 µM; with NCI-H226 lung, 9.02 µM; in the experiment with SF-539 CNS it was 12.7 µM; in the experiment with HS 578T breast it was 92.8 µM. The TGI was determined as 7.63 µM in the experiment with NCI/ADR-RES ovarian; 8.46 µM in the experiment on MCF7 breast; 2.51 µM in the experiment with HOP-62 NSCLC; 12.4 µM in the experiment on A549 NSCLC; 15.1 µM in the experiment with PC-3 prostate; 3.14 µM with RXF 393 renal.

As to `C[C@@H]1O[C@@H]2OCC[C@@H]2C2=C1C(=O)c1ccccc1C2=O`, the TGI in the experiment on MDA-MB-231 breast was more than 100 µM; with 786-0 renal, 29.1 µM; in the experiment with UO-31 renal, 22.8 µM; in the experiment with NCI-H226 lung, 61.5 µM; with SF-539 CNS it was 22.3 µM; with HS 578T breast it was more than 100 µM. Further, the TGI with NCI/ADR-RES ovarian was 14 µM; in the experiment with MCF7 breast it was 2.81 µM; with HOP-62 NSCLC, 31.5 µM; in the experiment on A549 NSCLC, 41.9 µM; in the experiment with PC-3 prostate, more than 100 µM; in the experiment on RXF 393 renal, 13.3 µM.

Consider `Cc1ccc(NCCN(C)CC(C)O)c2c(=O)c3ccc(Cl)cc3sc12` (configuration not stated), for which the GI50 is 5.45 µM with NCI-H226 lung; 2.83 µM with HS 578T breast; 4.68 µM in the experiment on NCI/ADR-RES ovarian; 2.18 µM in the experiment on MCF7 breast; 4.08 µM in the experiment on A549 NSCLC; 2.96 µM in the experiment on PC-3 prostate. The TGI with NCI-H226 lung, in the experiment on HS 578T breast, with NCI/ADR-RES ovarian, in the experiment on MCF7 breast, in the experiment on A549 NSCLC and in the experiment with PC-3 prostate was more than 100 µM in each case.

With `N=c1nc(N)nc(N)n1-c1ccc(S(N)(=O)=O)cc1`, the TGI in the experiment on MDA-MB-231 breast, in the experiment with 786-0 renal, with UO-31 renal, in the experiment with NCI-H226 lung, in the experiment on NCI/ADR-RES ovarian and in the experiment with HOP-62 NSCLC was more than 100 µM throughout. The TGI in the experiment with A549 NSCLC, in the experiment with PC-3 prostate and in the experiment with RXF 393 renal was more than 100 µM in each case.

With `CC(=O)NC1C(OCc2ccccc2)OC(CO)C(O)C1OCC(=O)NC(C)C(=O)NC(CCC(=O)OCCNC(=O)c1cccc2cc3ccccc3nc12)C(N)=O` (configuration not stated), the TGI in the experiment on 786-0 renal is 70.8 µM; in the experiment on UO-31 renal, 36.2 µM; in the experiment with NCI-H226 lung, 44.7 µM; with NCI/ADR-RES ovarian, 68.1 µM; in the experiment on MCF7 breast, more than 100 µM; in the experiment with HOP-62 NSCLC, 68.9 µM. Also, the TGI with A549 NSCLC is 23.4 µM; with PC-3 prostate, more than 100 µM; in the experiment on RXF 393 renal it was 39.7 µM.

Take `CCOC(=O)C1=C(C)N2CCCOC2(C)C(C(=O)OC)C1c1cccc([N+](=O)[O-])c1` (configuration not stated): the TGI in the experiment on UO-31 renal, with NCI-H226 lung, in the experiment on SF-539 CNS, with HOP-62 NSCLC, in the experiment on A549 NSCLC and in the experiment on RXF 393 renal was more than 100 µM each time.

For the compound `Cc1c2ccccc2nc2[nH]c3ccncc3c12`, the TGI was more than 100 µM with MDA-MB-231 breast; 71.5 µM in the experiment on 786-0 renal; more than 100 µM in the experiment on UO-31 renal; more than 100 µM in the experiment with SF-539 CNS; more than 100 µM in the experiment with HS 578T breast; 72.4 µM in the experiment on NCI/ADR-RES ovarian. Moreover, the TGI in the experiment with HOP-62 NSCLC was 62 µM; in the experiment with A549 NSCLC, more than 100 µM; in the experiment on PC-3 prostate, more than 100 µM.

Regarding `NC(Cc1ccc2oc3cc(=O)c4ccccc4c-3nc2c1)C(=O)O` (configuration not stated), the TGI with MDA-MB-231 breast was more than 100 µM; in the experiment on 786-0 renal, more than 100 µM; in the experiment on UO-31 renal it was more than 100 µM; in the experiment with NCI-H226 lung, 73.1 µM; with SF-539 CNS, 54.6 µM; with HS 578T breast, 59.6 µM. Besides, the TGI was more than 100 µM with NCI/ADR-RES ovarian; 11.2 µM with MCF7 breast; 76.3 µM with HOP-62 NSCLC; 62.5 µM in the experiment on A549 NSCLC; more than 100 µM with PC-3 prostate; 99.8 µM with RXF 393 renal.

Turning to `CN(C)CCNc1ccc2nnn3c4ccc(Cl)cc4c(=O)c1c23`, the TGI in the experiment on MDA-MB-231 breast turned out to be 25.7 µM; with 786-0 renal, 15.6 µM; in the experiment with UO-31 renal it was 9.41 µM; with NCI-H226 lung, 5.31 µM; in the experiment with SF-539 CNS it was 16.2 µM; with HS 578T breast, 13.5 µM. In addition, the TGI stood at 15.9 µM with NCI/ADR-RES ovarian; 96.2 µM in the experiment on MCF7 breast; 21.4 µM with HOP-62 NSCLC; 14.1 µM in the experiment on A549 NSCLC; 13.6 µM in the experiment with PC-3 prostate; 13.1 µM with RXF 393 renal.

For the compound `COc1cc2c(cc1O)CCN[C@@]21CS[C@H]2c3c(OC(C)=O)c(C)c4c(c3C(COC1=O)N1C2C2c3c(cc(C)c(OC)c3O)CC([C@@H]1O)N2C)OCO4` (some centres not stated), the GI50 was 0.00325 µM with MDA-MB-231 breast; less than 1 pM in the experiment with UO-31 renal; less than 1e-06 µM with NCI-H226 lung; 0.00279 µM with HS 578T breast; 0.0112 µM with NCI/ADR-RES ovarian; 0.000277 µM with MCF7 breast. Also, in the experiment with PC-3 prostate, the GI50 was 0.00429 µM. The TGI in the experiment on MDA-MB-231 breast was 0.0357 µM; in the experiment with UO-31 renal it was less than 1e-06 µM; with NCI-H226 lung, less than 1e-06 µM; in the experiment on HS 578T breast it was 0.0137 µM; with HOP-62 NSCLC, less than 1e-06 µM.

Consider `O=S(=O)(O)c1cc(O)c2c(O)c(N=Nc3ccc(/C=C/c4ccc(N=Nc5c(S(=O)(=O)O)cc6cc(S(=O)(=O)O)cc(O)c6c5O)cc4S(=O)(=O)O)c(S(=O)(=O)O)c3)c(S(=O)(=O)O)cc2c1`, for which the TGI in the experiment on 786-0 renal, in the experiment with UO-31 renal, with NCI-H226 lung, with SF-539 CNS, in the experiment on HOP-62 NSCLC and in the experiment with A549 NSCLC was more than 100 µM each time. The compound further registered a TGI in the experiment on RXF 393 renal of more than 100 µM.
